In patent US8927549B2, “Adamantyl benzamide derivatives” (High Point Pharmaceuticals, LLC, priority 2008, dated 2015) one finds EC50 data, which are given here for nine compounds.

The target in this experiment is T1, 11β-HSD (Homo sapiens, UniProt P28845).
T1 construct: from tissue
Kind of experiment: in vitro 11β-HSD Assay (human microsomes, CISBIO Cortisol kit). It is filed as biochemical. As to conditions: 160 nM cortisone, 200 μM NADPH, 2 h at 37° C. On the procedure: Protocol for in vitro 11β-HSD Assay
CISBIO Cortisol kit #62CO2PEB
Assay Buffer: (water based) used for Enzyme, Compounds and Microsomes: 20 mM Tris, 5 mM EDTA, and pH 6.0.
Enzyme Buffer: 333 μM NADPH (FAC 200 μM) and 266 nM Cortisone (FAC 160 nM).
1) Test compounds (10 mM stock in 100% DMSO) were diluted in Assay Buffer (see below) with 1% DMSO FAC and placed into the 96-well plate. Test compounds were typically tested over 10 concentrations (30 μM-0.3 nM).
2) 30 μL Enzyme Buffer, 10 μL Test Compound, 10 μL human microsomes were added to the test compounds and mixed gently by tapping the plate.
3) The plates were incubated for 2 h at 37° C.
4) 25 μL anti Cortisol-K and 25 μL Cortisol d2 were added to the plate and mixed gently by tapping the plate.
5) The plates were incubated at room temperature for 2 h.
6) The plates were read on an Envision model 2120 Perkin-Elmer using emission filters #205 and #217.

T1 sequence (P28845 whole entry): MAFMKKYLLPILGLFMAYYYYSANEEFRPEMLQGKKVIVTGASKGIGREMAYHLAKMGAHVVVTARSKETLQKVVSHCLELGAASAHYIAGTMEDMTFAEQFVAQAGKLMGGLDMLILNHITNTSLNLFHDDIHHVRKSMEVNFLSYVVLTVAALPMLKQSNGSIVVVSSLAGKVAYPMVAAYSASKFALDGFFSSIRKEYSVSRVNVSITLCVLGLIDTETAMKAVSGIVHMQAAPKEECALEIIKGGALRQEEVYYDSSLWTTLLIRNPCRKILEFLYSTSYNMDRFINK

Broadly, the EC50 is the concentration at which the effect is half-maximal. A high value points to a need for much substance. For the compound `O=C(NC1C2CC3CC1CC(O)(C3)C2)c1cccc(Nc2ccc(Cl)cn2)c1` (stereo not drawn) [Example 8, 3-(5-Chloro-pyridin-2-ylamino)-N-[(E)-5-hydroxy-adamantan-2-yl]-benzamide], the EC50 was less than 200 nM.

Compound `O=C(NC1C2CC3CC1CC(O)(C3)C2)c1cccc([S+]([O-])c2ccc(Cl)cn2)c1` (stereo not drawn) [Example 4, 3-(5-Chloro-pyridine-2-sulfinyl)-N-[(E)-5-hydroxy-adamantan-2-yl]-benzamide] gave an EC50 of less than 500 nM. Under `O=C(NC1C2CC3CC1CC(O)(C3)C2)c1cccc(Sc2ccc(Cl)cn2)c1` (stereo not drawn) [Example 3, 3-(5-Chloro-pyridin-2-ylsulfanyl)-N-[(E)-5-hydroxy-adamantan-2-yl]-benzamide] stands less than 200 nM; under `O=C(NC1C2CC3CC1CC(O)(C3)C2)c1cccc(Oc2ccc(Cl)nn2)c1` (stereo not drawn) [Example 6, 3-(6-Chloro-pyridazin-3-yloxy)-N-[(E)-5-hydroxy-adamantan-2-yl]-benzamide], less than 200 nM; under `O=C(NC1C2CC3CC1CC(O)(C3)C2)c1cccc(S(=O)(=O)c2ccc(Cl)cn2)c1` (stereo not drawn) [Example 5, 3-(5-Chloro-pyridine-2-sulfonyl)-N-[(E)-5-hydroxy-adamantan-2-yl]-benzamide], less than 3000 nM. `O=C(NC1C2CC3CC1CC(O)(C3)C2)c1cccc(Oc2ccc(Cl)cn2)c1` (stereo not drawn) [Example 1, 3-(5-Chloro-pyridin-2-yloxy)-N-[(E)-5-hydroxy-adamantan-2-yl]-benzamide] displayed an EC50 of less than 200 nM.

Compound `O=C(NC1C2CC3CC1CC(O)(C3)C2)c1cccc(Oc2ncc(Cl)cc2Cl)c1` (stereo not drawn) [Example 7, 3-(3,5-Dichloro-pyridin-2-yloxy)-N-[(E)-5-hydroxy-adamantan-2-yl]-benzamide] had a 50% effective concentration (EC50) of less than 200 nM.

Turning to `Cc1cc(C)nc(Nc2cccc(C(=O)NC3C4CC5CC3CC(O)(C5)C4)c2)n1` (stereo not drawn) [Example 9, 3-(4,6-Dimethyl-pyrimidin-2-ylamino)-N-[(E)-5-hydroxy-adamantan-2-yl]-benzamide], the EC50 is less than 500 nM. Under `O=C(NC1C2CC3CC1CC(O)(C3)C2)c1cccc(Oc2ccc(C(F)(F)F)cn2)c1` (stereo not drawn) [Example 2, N-[(E)-5-Hydroxy-adamantan-2-yl]-3-(5-trifluoromethyl-pyridin-2-yloxy)-benzamide] stands less than 200 nM.
